How the values were obtained:
Format in all cases: in vivo
Setaria viridis [1] = assay: Post-emergence herbicidal action, SETVI; parameters: key: % herbicidal action vs untreated; 100 = plants died, 0 = like control
In short: (§1)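 Percent herbicidal effect was judged by eye against untreated controls around 3 weeks after foliar treatment, where 100% meant dead plants. Spraying took place at the one-leaf stage using wettable powder or emulsion concentrate diluted in water (600 to 800 l/ha) with added wetting agent at 0.2%.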

Amaranthus retroflexus = assay: Post-emergence herbicidal action, AMARE; parameters: key: % herbicidal action vs untreated; 100 = plants died, 0 = like control
In short: as §1

Setaria viridis [2] = assay: Pre-emergence herbicidal action, SETVI; parameters: key to Herbicidal action against SETVI: % activity: 100 = plants have died, 0 = like control plants; settings: for herbicidal activity SETVI / herbicidal action SETVI: dosage 320 g/ha; for herbicidal activity SETVI: scored visually after 3 weeks vs untreated controls (100% = plants have died); for Herbicidal action against SETVI: comparative experiment
In short: (§2)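 Pre-emergence soil spray over sandy loam-covered seeds; greenhouse 3 weeks; % visual damage (0% = control, 100% = dead).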

Veronica persica = assay: Post-emergence herbicidal action, VERPE; parameters: key: % herbicidal action vs untreated; 100 = plants died, 0 = like control
In short: as §1

Stellaria media = assay: Post-emergence herbicidal action, STEME; parameters: key: % herbicidal action vs untreated; 100 = plants died, 0 = like control; settings: for Herbicidal action against STEME: comparative experiment
In short: as §1

Viola tricolor = assay: Pre-emergence herbicidal action, VIOTR; parameters: key to Herbicidal action against VIOTR: % activity: 100 = plants have died, 0 = like control plants; settings: for herbicidal activity VIOTR / herbicidal action VIOTR: dosage 320 g/ha; for herbicidal activity VIOTR: scored visually after 3 weeks vs untreated controls (100% = plants have died)
In short: as §2

[3] = comparative experiment, post-emergence, 20 g of a.i./ha

Structure (SMILES)	herbicidal action SETVI (Setaria viridis [1]; post-emergence, dosage 80 g/ha)	herbicidal action AMARE (Amaranthus retroflexus; post-emergence, dosage 80 g/ha)	herbicidal activity SETVI (Setaria viridis [2])	herbicidal action VERPE (Veronica persica; post-emergence, dosage 80 g/ha)	herbicidal action STEME (Stellaria media; post-emergence, dosage 80 g/ha)	herbicidal activity VIOTR (Viola tricolor)	herbicidal action SETVI (Setaria viridis [1]; Dosage 80 g/ha)	herbicidal action AMARE (Amaranthus retroflexus; Dosage 80 g/ha)	herbicidal action VERPE (Veronica persica; Dosage 80 g/ha)	herbicidal action STEME (Stellaria media; Dosage 80 g/ha)	also measured
CCn1nnnc1NC(=O)c1ccc(C(F)(F)F)c(C[S+](C)[O-])c1Cl (stereo not drawn) [Example 2-297]	100%	100%	100%	100%	100%	100%	–	–	–	–	–
CCn1nnnc1NC(=O)c1ccc(C(F)(F)F)c(CS(=O)(=O)CC)c1Cl [Example 2-301]	–	–	–	–	–	–	90	80	100	100	herbicidal action SETVI (Setaria viridis [2]): 100%; herbicidal action VIOTR (Viola tricolor): 100%
CSCc1c(Cl)ccc(C(=O)Nc2nnnn2C)c1Cl [Example 1-559]	100%	100%	–	100%	100%	–	–	–	–	–	herbicidal action SETVI (Setaria viridis [2]): 80%; herbicidal action VIOTR (Viola tricolor): 100%
Cn1nnnc1NC(=O)c1ccc(C(F)(F)F)c(CS(=O)(=O)CC2CC2)c1Cl [Example 1-316]	–	–	100%	–	–	100%	90	100	100	100	–
CSCc1c(I)ccc(C(=O)Nc2nnnn2C)c1Cl [Example 1-362]	90%	100%	100%	100%	100%	100%	–	–	–	–	Herbicidal action against AMARE (Amaranthus retroflexus; comparative experiment, post-emergence, 5 g of a.i./ha): 100; Herbicidal action against SETVI (Setaria viridis [2]; 20 g of a.i./ha): 90; Herbicidal action against STEME (Stellaria media; post-emergence, 5 g of a.i./ha): 90
CCn1nnnc1NC(=O)c1ccc(C(F)F)c(CS(C)(=O)=O)c1Cl [Example 2-322]	100%	80%	100%	90%	100%	100%	–	–	–	–	–
CSCc1c(C)ccc(C(=O)Nc2nnnn2C)c1Cl [Example 1-287]	–	–	–	–	–	–	90	100	100	100	herbicidal action SETVI (Setaria viridis [2]): 90%; herbicidal action VIOTR (Viola tricolor): 90%
CCn1nnnc1NC(=O)c1ccc(C(F)(F)F)c(CS(=O)(=O)CC)c1Br [Example 2-385]	90%	90%	100%	100%	100%	100%	–	–	–	–	–
CCn1nnnc1NC(=O)c1ccc(C(F)F)c(C[S+]([O-])CC)c1Cl (stereo not drawn) [Example 2-324]	90%	100%	100%	100%	100%	100%	–	–	–	–	–
CCn1nnnc1NC(=O)c1ccc(C(F)(F)F)c(CSC)c1Cl [Example 2-296]	90%	100%	100%	100%	100%	100%	–	–	–	–	–
CCn1nnnc1NC(=O)c1ccc(C(F)(F)F)c(CSCCOC)c1Cl [Example 2-305]	100%	100%	100%	100%	100%	100%	–	–	–	–	–
CCCn1nnnc1NC(=O)c1ccc(C(F)(F)F)c(CSC)c1SC [Example 3-161]	–	–	–	–	–	–	100	100	100	100	herbicidal action SETVI (Setaria viridis [2]): 90%; herbicidal action VIOTR (Viola tricolor): 100%
CCSCc1c(C(F)(F)F)ccc(C(=O)Nc2nnnn2C)c1Br [Example 1-383]	90%	90%	100%	100%	100%	100%	–	–	–	–	Herbicidal action against SETVI (Setaria viridis [1]; [3]): 90; Herbicidal action against SETVI (Setaria viridis [2]; 80 g of a.i./ha): 100; Herbicidal action against VERPE (Veronica persica; [3]): 100; Herbicidal action against STEME (Stellaria media; post-emergence, 20 g of a.i./ha): 100; Herbicidal action against VIOTR (Viola tricolor; comparative experiment, 80 g of a.i./ha): 100
C=CCSCc1c(C(F)(F)F)ccc(C(=O)Nc2nnnn2CCC)c1Cl [Example 3-308]	–	–	100%	–	–	100%	100	100	80	100	–
CCSCc1c(C(F)(F)F)ccc(C(=O)Nc2nnnn2CC)c1Cl [Example 2-299]	100%	90%	100%	100%	100%	100%	–	–	–	–	–
CCCn1nnnc1NC(=O)c1ccc(C(F)(F)F)c(C[S+](C)[O-])c1SC (stereo not drawn) [Example 3-162]	100%	100%	100%	100%	100%	100%	–	–	–	–	–
Cn1nnnc1NC(=O)c1ccc(I)c(CS(C)(=O)=O)c1Cl [Example 1-364]	–	–	100%	–	–	100%	100	100	100	100	Herbicidal action against SETVI (Setaria viridis [2]; 20 g of a.i./ha): 100
